Broadly, the Tmax is the time from dosing to the highest level. In general, Cmax refers to the peak of the concentration-time curve. For orientation: IC50 means the concentration that inhibits the measured activity by half. As a reminder, the LogP is a log measure of how a compound divides between an organic and an aqueous phase.

Read-outs that look alike come from different tables or passages of the source.

Details of data set [1]: AUC0-inf / AUC0-last: unit not given here. The conditions noted are these: mice, p.o., data provided by MMV, cited from earlier work; for AUC0-last / MRT0-last / Tlast / Tmax / Cmax: 114 µmol/kg (1),(5), 119 µmol/kg (2); for Cmax: plasma.
Data set [2] concerns N. caninum tachyzoites. Format: cell-based, Neospora caninum. The conditions noted are these: 500 nM, TEM at 6, 12, 24, 48 h of treatment. On the procedure: The transmission electron microscopy of N. caninum-infected HFF monolayers was done as previously described. Briefly, HFFs were grown to confluency in 6-well tissue culture devices and were infected with freshly isolated N. caninum tachyzoites during 2 h at 37 °C/5% CO2. After one wash in PBS, treatments with the compounds (1), (2), and (5) were initiated, all at 500 nM. The controls were treated with the corresponding amount of DMSO. After 6, 12, 24, or 48 h, samples were rinsed in PBS, and were fixed in 100 mM of cacodylate buffer pH7.3 containing 2.5% glutaraldehyde for 2 h at room temperature. The cells were scraped and centrifuged at 1000 g for 10 min at 4 °C and, and the resulting pellet was further fixed in the same solution at 4 °C overnight, followed by post-fixation in 2% OsO4 in cacodylate buffer for 4 h at 4 °C. Subsequently, the specimens were washed and pre-stained in Uranyless^TM (Electron Microscopy Sciences, Hatfield, PA, USA), followed by dehydration in a graded series of ethanol (30%, 50%, 70%, 90%, and 100%). They were finally embedded in Epon 820 epoxy resin over a period of 2 days with 3 resin changes. The resin was polymerized at 65 °C for 24 h, and 80-nm sections were cut on a Reichert and Jung ultramicrotome. The sections were loaded onto 300-mesh copper grids (Plano GmbH, Marburg, Germany) and were stained with Uranyless^TM and lead citrate as described.

Data set [3] deals with human foreskin fibroblasts (HFFs). The experiment in a line: HFF viability, Alamar Blue assay. It counts as cell-based. The following applies: 1 µM compound/well, uninfected confluent HFF, 3 days. On the procedure: For an initial screen, 390 compounds (1 µM compound/well) were added to human foreskin fibroblasts (HFFs) previously seeded in 96-well-plates. DMSO (0.25%) was included as a solvent control. HFF monolayers were either left uninfected or were infected with 10^3 N. caninum beta-galactosidase expressing tachyzoites per well. After 3 days, N. caninum proliferation was assayed by measuring beta-galactosidase activity, and HFF viability was monitored using the Alamar Blue assay. This screen was repeated once for confirmation, yielding identical results. […]
To define the cutoff values in the initial screening, compounds were regarded as effective against N. caninum when the beta-galactosidase values were lower than the mean values of the controls (8 replicates) minus three times the standard deviation of these control values. […] The IC50 values were calculated after the logit-log transformation of the relative growth (RG; control = 1) according to the formula ln (RG/(1 − RG)) = a × ln(drug concentration) + b, and the subsequent regression analysis was carried out using the corresponding software tool contained in the Excel software package (Microsoft, Seattle, WA, USA).

Data set [4] deals with Plasmodium falciparum blood forms. Also noted: method as in PMID 31665424. The following applies: cited from earlier work.
Data set [5] has as its system N. caninum tachyzoites. Description: N. caninum β-galactosidase reporter strain proliferation in HFF (screen and inhibition curves). The conditions noted are these: Neospora caninum. It counts as cell-based. The procedure:
Figure 2 Dose response curves of 9 Medicines for Malaria Venture (MMV) Malaria Box compounds. […] The inhibition of N. caninum tachyzoite proliferation was determined using a β-galactosidase reporter strain in the presence of a concentration series of compounds added prior to the infection of confluent human foreskin fibroblasts by tachyzoites. The mean values ± SE are indicated for quadruplicates.
For an initial screen, 390 compounds (1 µM compound/well) were added to human foreskin fibroblasts (HFFs) previously seeded in 96-well-plates. DMSO (0.25%) was included as a solvent control. HFF monolayers were either left uninfected or were infected with 10^3 N. caninum beta-galactosidase expressing tachyzoites per well. After 3 days, N. caninum proliferation was assayed by measuring beta-galactosidase activity, and HFF viability was monitored using the Alamar Blue assay. This screen was repeated once for confirmation, yielding identical results. Forty compounds showing values lower than the cut-off of the beta-galactosidase assay were regarded as effective against N. caninum, compounds yielding values lower than the cutoff of the Alamar Blue assay were regarded as cytotoxic. Effective compounds without cytotoxicity were regarded as potential hits and were retained for further experiments. The IC50 values (inhibitory concentration of 50% of the solvent control value) of selected compounds were determined in quadruplicate wells in the same assay set-up and were calculated as described.
To define the cutoff values in the initial screening, compounds were regarded as effective against N. caninum when the beta-galactosidase values were lower than the mean values of the controls (8 replicates) minus three times the standard deviation of these control values. Furthermore, compounds were regarded as cytotoxic when the Alamar Blue values were lower than the mean values of the untreated controls (8 replicates) minus three times the standard deviation of these control values. The IC50 values were calculated after the logit-log transformation of the relative growth (RG; control = 1) according to the formula ln (RG/(1 − RG)) = a × ln(drug concentration) + b, and the subsequent regression analysis was carried out using the corresponding software tool contained in the Excel software package (Microsoft, Seattle, WA, USA).

The subject of another data set is Cryptosporidium parvum. Also noted: method as in PMID 24566188. The conditions noted are these: cited from earlier work.
For data set [6] the following is noted: source of values not stated; cited from earlier work.
The subject of another data set is Theileria annulata. The following applies: cited from earlier work; for Therapeutic index: T. annulata vs macrophages.
A further data set deals with cysteine proteinases. Details: method as in PMID 27467575. The conditions noted are these: functional assays; cited from earlier work.
The next data set has as its system Brugia malayi. Also noted: method as in PMID 27467575. The following applies: cited from earlier work.
Setting [7] is: 72 h, 3 days, concentration range 0–250 nM, with 95% confidence intervals.

Regarding `CN(C)c1ccc(C(O)(c2ccc(N(C)C)cc2)c2ccc(N(C)C)cc2)cc1` [Compound (1)], in data set [1], the AUC0-last is recorded as 27.2, the MRT0-last was 4.80 h, the Tlast is recorded as 9.00 h and the Tmax is 5.00 h. Further, the Cmax in data set [1] is 1090 nM. The “Effects on the ultrastructure of N. caninum tachyzoites” value (“Effects on the ultrastructure” below) in the data set on N. caninum tachyzoites [2] is “cytoplasmic vacuoles that were already detectable after 6 h of treatment”. The “Effects on the ultrastructure” value in the data set with N. caninum tachyzoites [2] (listed as MMV665941) is recorded as “specifically induced distinct alterations in the tachyzoites”. Also, the “Cytotoxicity against HFFs” value in data set [3] is “did not affect confluent HFFs”. Moreover, the “Rapidity of action against P. falciparum blood forms” value in data set [4] is on record as “more slowly than artesunate, but faster than atovaquone”. In addition, the IC50 with N. caninum tachyzoites [5] (setting [7]) amounted to 25 ± 5 nM. Moreover, the half-inhibitory concentration (IC50) in the data set with Cryptosporidium parvum (read-out: IC50 against Cryptosporidium parvum) is approximately 800 nM. Further, the LogP in [6] is on record as 4.76. Also, in the data set with Theileria annulata, the Therapeutic index is given as 2.5 and the “Effectiveness against T. annulata” value is “most effective against T. annulata”.

Turning to `O=C(Nc1cccc(C(F)(F)F)c1)c1cc(Cl)ccc1O` [Compound (2)], in [1], the MRT0-last is 5.24 h, the Tlast is on record as 9.00 h, the Tmax was 6.33 h and the Cmax is 62 nM. Further, in the data set on N. caninum tachyzoites [2], the “Effects on the ultrastructure” value is “after a treatment duration of 12 h (Figure 6C), the loss of the tachyzoite mitochondrial matrix was evident”. For the same compound, in the data set on N. caninum tachyzoites [2] (listed as MMV665807), the “Effects on the ultrastructure” value is given as “specifically induced distinct alterations in the tachyzoites”. Besides, the “Rapidity of action against P. falciparum blood forms” value in data set [4] was “very rapidly”. Also, the IC50 in the data set on N. caninum tachyzoites [5] (setting [7]) turned out to be 71 ± 30 nM. In data set [6], the LogP is given as 6.06.

For `CCCOCc1cc(CN2CCN(c3cccc(Cl)c3)CC2)c(O)c2ncccc12` [Compound (3)], the “Rapidity of action against P. falciparum blood forms” value in data set [4] was “very slowly”. This compound showed a half-maximal inhibitory concentration (IC50) in the data set with N. caninum tachyzoites [5] (setting [7]) of 99 ± 10 nM. The LogP in data set [6] is listed as 4.71. The “Inhibition of cysteine proteinases” value in the data set on cysteine proteinases is “inhibits cysteine proteinases”.

`COc1ccc(C(=O)NC(c2ccc(Cl)cc2Cl)c2cc(Cl)c3cccnc3c2O)cc1` (stereo not drawn) [Compound (4)]: the “Effectiveness against the helminth Brugia malayi” value with Brugia malayi was “effective”. Besides, the “Rapidity of action against P. falciparum blood forms” value in data set [4] is on record as “relatively slowly”. The IC50 in the data set with N. caninum tachyzoites [5] (setting [7]) was determined as 79 ± 10 nM. Besides, in the data set with Cryptosporidium parvum, the “Effectiveness against C. parvum” value is reported as “effective against C. parvum”. In data set [6], the LogP is 6.15. In addition, in the data set on Theileria annulata, the Therapeutic index result is recorded as “around 18” and the “Effectiveness against T. annulata” value is given as “most effective against T. annulata”.

In the case of `O=C1c2ccc3c4c(ccc(c24)C(=O)N1CCCCO)C(=O)N(CCCCO)C3=O` [Compound (5)], in data set [1], the AUC0-last is recorded as 0.475, the MRT0-last is reported as 1.55 h, the Tlast was 7.00 h and the Tmax is on record as 0.444 h. Besides, in [1], the Cmax was 308 nM. Also, in [1] (114 µmol/kg), the AUC0-inf is 0.486, the MRT0-inf is reported as 1.80 h and the T1/2 is 1.48 h. Also, the “Effects on the ultrastructure” value in the data set with N. caninum tachyzoites [2] is recorded as “ongoing proliferation despite clear ultrastructural alterations”. In the data set with N. caninum tachyzoites [2] (listed as MMV009085), the “Effects on the ultrastructure” value was “specifically induced distinct alterations in the tachyzoites”. Further, the IC50 in the data set with N. caninum tachyzoites [5] is less than 200 nM. The compound also returned a 50% inhibitory concentration (IC50) with N. caninum tachyzoites [5] (setting [7]) of 150 ± 30 nM. Moreover, the “Effectiveness against C. parvum” value in the data set with Cryptosporidium parvum is “effective against C. parvum with an IC50 in same range”. In data set [6], the LogP is given as −1.30.

These data come from PMC7145303, “In Vitro Activities of MMV Malaria Box Compounds against the Apicomplexan Parasite Neospora caninum, the Causative Agent of Neosporosis in Animals” (Molecules, 2020).
